Experimental data as given in article PMC11012124, “Synthesis of Novel Triazine-Based Chalcones and 8,9-dihydro-7H-pyrimido[4,5-b][1,4]diazepines as Potential Leads in the Search of Anticancer, Antibacterial and Antifungal Agents” (International Journal of Molecular Sciences, 2024).

Assays:
[1] = Hemolytic activity, spectrophotometric; type: cell-based, human; conditions: human, human red blood cells (huRBC), 5% hematocrit, 200 μg/mL, 37 °C
CCRF-CEM = experiment: cells; conditions: Homo sapiens, 48 h
HL-60(TB) = experiment: cells; conditions: Homo sapiens, HL-60, 48 h
K-562 = experiment: cells; conditions: Homo sapiens, K562, 48 h
EKVX = experiment: cells; conditions: Homo sapiens, 48 h
HOP-62 = experiment: cells; conditions: Homo sapiens, HOP-62, 48 h
NCI-H322M = experiment: cells; conditions: Homo sapiens, 48 h
NCI-H460 = experiment: cells; conditions: Homo sapiens, NCI-H460, 48 h
COLO 205 = experiment: cells; conditions: Homo sapiens, COLO 205, 48 h
HCC-2998 = experiment: cells; conditions: Homo sapiens, HCC 2998, 48 h
HCT-15 = experiment: cells; conditions: Homo sapiens, HCT-15, 48 h
HT29 = experiment: cells; conditions: Homo sapiens, HT-29, 48 h
KM12 = experiment: cells; conditions: Homo sapiens, KM12, 48 h
SF-268 = experiment: cells; conditions: Homo sapiens, SF-268, 48 h
SF-295 = experiment: cells; conditions: Homo sapiens, SF-295, 48 h
SF-539 = experiment: cells; conditions: Homo sapiens, SF-539, 48 h
SNB-75 = experiment: cells; conditions: Homo sapiens, SNB-75, 48 h
MALME-3M = experiment: cells; conditions: Homo sapiens, 48 h
M14 = experiment: cells; conditions: Homo sapiens, M14, 48 h
SK-MEL-28 = experiment: cells; conditions: Homo sapiens, SK-MEL-28, 48 h
SK-MEL-5 = experiment: cells; conditions: Homo sapiens, SK-MEL-5, 48 h
UACC-257 = experiment: cells; conditions: Homo sapiens, UACC-257, 48 h
UACC-62 = experiment: cells; conditions: Homo sapiens, UACC-62, 48 h
OVCAR-3 = experiment: cells; conditions: Homo sapiens, OVCAR-3, 48 h
OVCAR-4 = experiment: cells; conditions: Homo sapiens, OVCAR-4, 48 h
OVCAR-5 = experiment: cells; conditions: Homo sapiens, OVCAR-5, 48 h
OVCAR-8 = experiment: cells; conditions: Homo sapiens, OVCAR-8, 48 h
SK-OV-3 = experiment: cells; conditions: Homo sapiens, SK-OV-3, 48 h
786-0 = experiment: cells; conditions: Homo sapiens, 786-0, 48 h
A498 = experiment: cells; conditions: Homo sapiens, A498, 48 h
CAKI-1 = experiment: cells; conditions: Homo sapiens, CAKI-1, 48 h
SN12C = experiment: cells; conditions: Homo sapiens, 48 h
TK-10 = experiment: cells; conditions: Homo sapiens, TK-10, 48 h
UO-31 = experiment: cells; conditions: Homo sapiens, UO-31, 48 h
MCF7 = experiment: cells; conditions: Homo sapiens, MCF7, 48 h
HS 578T = experiment: cells; conditions: Homo sapiens, 48 h
MDA-MB-468 = experiment: cells; conditions: Homo sapiens, MDA-MB-468, 48 h

COc1cc(/C=C/C(=O)c2cc(OC)c(OC)c(OC)c2)ccc1Oc1nc(Nc2ccc(F)cc2)nc(N(C)C)n1 [21d]
hemolysis at 24 h, 200 µg/mL [1]: 8%
GI50 (CCRF-CEM): 2.19 µM
CC50 (CCRF-CEM; read-out: LC50): > 100 µM
GI50 (HL-60(TB)): 2.21 µM
CC50 (HL-60(TB); read-out: LC50): > 100 µM
GI50 (K-562; K-562, 48 h): 1.4 µM
CC50 (K-562; read-out: LC50): > 100 µM
GI50 (EKVX): 2.15 µM
CC50 (EKVX; read-out: LC50): 31.1 µM
GI50 (HOP-62): 1.83 µM
CC50 (HOP-62; read-out: LC50): 8.22 µM
GI50 (NCI-H322M): 2.99 µM
CC50 (NCI-H322M; read-out: LC50): > 100 µM
GI50 (NCI-H460): 1.45 µM
CC50 (NCI-H460; read-out: LC50): 7.53 µM
GI50 (COLO 205): 4.45 µM
CC50 (COLO 205; read-out: LC50): 47.5 µM
GI50 (HCC-2998): 2.03 µM
CC50 (HCC-2998; read-out: LC50): 8.52 µM
GI50 (HCT-15): 1.18 µM
CC50 (HCT-15; read-out: LC50): 6.39 µM
GI50 (HT29): 1.54 µM
CC50 (HT29; read-out: LC50): 8.22 µM
GI50 (KM12): 3.63 µM
CC50 (KM12; read-out: LC50): > 100 µM
GI50 (SF-268): 3.43 µM
CC50 (SF-268; read-out: LC50): > 100 µM
GI50 (SF-295): 1.98 µM
CC50 (SF-295; read-out: LC50): 19.6 µM
GI50 (SF-539): 1.64 µM
CC50 (SF-539; read-out: LC50, SF-539, 48 h): 5.81 µM
GI50 (SNB-75): 2.54 µM
CC50 (SNB-75; read-out: LC50): 81.8 µM
GI50 (MALME-3M): 1.75 µM
CC50 (MALME-3M; read-out: LC50): 11.1 µM
GI50 (M14): 2.83 µM
CC50 (M14; read-out: LC50): 32.8 µM
GI50 (SK-MEL-28): 1.8 µM
CC50 (SK-MEL-28; read-out: LC50): 9.23 µM
GI50 (SK-MEL-5): 2.16 µM
CC50 (SK-MEL-5; read-out: LC50): 12.2 µM
GI50 (UACC-257): 2.83 µM
CC50 (UACC-257; read-out: LC50): > 100 µM
GI50 (UACC-62): 1.41 µM
CC50 (UACC-62; read-out: LC50): 6.38 µM
GI50 (OVCAR-3): 2.57 µM
CC50 (OVCAR-3; read-out: LC50): > 100 µM
GI50 (OVCAR-4): 2.07 µM
CC50 (OVCAR-4; read-out: LC50): > 100 µM
GI50 (OVCAR-5): 1.48 µM
CC50 (OVCAR-5; read-out: LC50): 11.6 µM
GI50 (OVCAR-8): 1.55 µM
CC50 (OVCAR-8; read-out: LC50): > 100 µM
GI50 (SK-OV-3): 8.42 µM
CC50 (SK-OV-3; read-out: LC50): 97.4 µM
GI50 (786-0): 1.45 µM
CC50 (786-0; read-out: LC50): 7.19 µM
GI50 (A498): 3.99 µM
CC50 (A498; read-out: LC50): 38.9 µM
GI50 (CAKI-1): 1.98 µM
CC50 (CAKI-1; read-out: LC50): 25.1 µM
GI50 (SN12C): 1.23 µM
CC50 (SN12C; read-out: LC50): 6.04 µM
GI50 (TK-10): 2.53 µM
CC50 (TK-10; read-out: LC50): 38.1 µM
GI50 (UO-31): 1.12 µM
CC50 (UO-31; read-out: LC50): 4.96 µM
GI50 (MCF7): 1.06 µM
CC50 (MCF7; read-out: LC50): 67 µM
GI50 (HS 578T): 2.39 µM
CC50 (HS 578T; read-out: LC50): > 100 µM
GI50 (MDA-MB-468): 1.35 µM
CC50 (MDA-MB-468; read-out: LC50): 9.11 µM
